# Test results from patent publication US20240010602A1, “PHENYL UNSATURATED KETONES AS HUMAN FACTOR XIIIA INHIBITORS FOR TREATMENT OF THROMBOEMBOLIC DISEASES” (Xavier University of Louisiana, priority 2022, published 2024).
# Biological target: T1, human factor XIIIa (Homo sapiens, UniProt P00488)
# T1 sequence (P00488 39-732 limits assumed): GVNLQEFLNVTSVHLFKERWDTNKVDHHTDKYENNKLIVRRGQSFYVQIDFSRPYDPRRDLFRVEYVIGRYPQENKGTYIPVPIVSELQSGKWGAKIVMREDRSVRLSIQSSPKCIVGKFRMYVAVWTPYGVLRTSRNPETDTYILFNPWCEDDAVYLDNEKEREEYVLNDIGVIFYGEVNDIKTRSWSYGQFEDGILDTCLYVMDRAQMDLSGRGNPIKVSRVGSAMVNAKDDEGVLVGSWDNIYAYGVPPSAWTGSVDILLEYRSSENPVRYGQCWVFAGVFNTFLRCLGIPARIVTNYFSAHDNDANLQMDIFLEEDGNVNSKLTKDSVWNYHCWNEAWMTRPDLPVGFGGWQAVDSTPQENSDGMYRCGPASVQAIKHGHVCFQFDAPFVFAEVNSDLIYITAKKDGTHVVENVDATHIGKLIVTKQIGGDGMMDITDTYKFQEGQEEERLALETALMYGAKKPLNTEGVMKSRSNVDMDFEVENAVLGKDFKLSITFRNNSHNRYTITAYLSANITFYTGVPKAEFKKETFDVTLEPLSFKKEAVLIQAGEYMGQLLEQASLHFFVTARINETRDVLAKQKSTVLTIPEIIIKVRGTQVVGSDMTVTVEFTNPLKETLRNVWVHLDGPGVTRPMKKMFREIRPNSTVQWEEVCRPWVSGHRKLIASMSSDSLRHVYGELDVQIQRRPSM
# Experiment: bi-substrate, fluorescence-based trans-glutamination assay
# Assay type: biochemical
# Conditions: pH 7.4, 37° C., 10 min incubation, N,N-dimethylcasein and dansylcadaverine substrates; read-out: FXIIIa IC50
# Method: To evaluate the effect of inhibitor on human factor XIIIa (and other transglutaminases), a bi-substrate, fluorescence-based trans-glutamination assay was performed. Generally, 1 μL of inhibitor was diluted with 87 μL of pH 7.4 buffer (50 mM Tris-HCl, 1 mM CaCl2, 100 mM NaCl, and 2 mg/mL N,N-dimethylcasein) and 5 μL dithiothreitol (20 mM) at 37° C. followed by the addition of 2 μL of human factor XIIIa (0.3 μM) and incubation for 10 min. The activity of factor XIIIa was monitored following the addition of 5 μL of dansylcadaverine (2 mM) by measuring the initial rate of increase in fluorescence emission (λEx.=360 nm and λEm.=490 nm). Relative residual factor XIIIa activity at each concentration of the inhibitor was calculated from the ratio of factor XIIIa activity in the presence and absence of the inhibitor. Logistic Eq. 1 was used to fit the concentration dependence of residual […] activity so as to obtain the potency (IC50) and efficacy (ΔY %) of inhibition.
# In this equation, Y is the ratio of residual […] activity in the presence of inhibitor to that in its absence, YM and Y0 are the maximum and minimum possible values of the fractional residual factor XIIIa activity, IC50 is the concentration of the inhibitor that leads to 50% inhibition of enzyme activity, and HS is the Hill slope. YM, Y0, IC50, and HS values are determined by nonlinear curve fitting of the data. The data is shown in FIG. 2 (top panel) and Table 1 below: […]
row,IC50 [µM],SMILES
1,75,"C=C(CC)C(=O)c1ccc(OCC(=O)N(C)C)c(Cl)c1Cl [Formula V, 2-(2,3-dichloro-4-(2-methylenebutanoyl)phenoxy)-N,N-dimethylacetamide]"
2,105,"C=C(CC)C(=O)c1ccc(OCC(=O)O)c(Cl)c1Cl [Formula II, 2-(2,3-dichloro-4-(2-methylenebutanoyl)phenoxy)acetic acid]"
3,51,"C=C(CC)C(=O)c1c(Cl)cc(OCC(=O)O)cc1Cl [Formula VI, 2-(3,5-dichloro-4-(2-methylenebutanoyl)phenoxy)acetic acid]"
4,24,"C=CC(=O)c1c(Cl)cc(OCC(=O)N(C)C)cc1Cl [Formula VIII, 2-(4-acryloyl-3,5-dichlorophenoxy)-N,N-dimethylacetamide]"
5,92,"C=C(CC)C(=O)c1ccc(OCC(=O)OC)c(Cl)c1Cl [Formula III, methyl 2-(2,3-dichloro-4-(2-methylenebutanoyl)phenoxy)acetate]"
6,100,"C=C(CC)C(=O)c1ccc(OCC(=O)NC)c(Cl)c1Cl [Formula IV, 2-(2,3-dichloro-4-(2-methylenebutanoyl)phenoxy)-N-methylacetamide]"
7,83,"C=CC(=O)c1ccc(OCC(=O)O)c(Cl)c1Cl [Formula VII, 2-(4-acryloyl-2,3-dichlorophenoxy)acetic acid]"
